Results reported in PMC12396409, “Screening and hit evaluation of a microbial metabolite library against the pathogenic Plasmodium falciparum and Toxoplasma gondii parasites” (International Journal for Parasitology: Drugs and Drug …, 2025).
Where a name gives a salt, the structure may show the parent alone. Read-outs that look alike come from different tables or passages of the source.

Legend:
[1] = tested on: P. falciparum 3D7 parasites; test: P. falciparum growth inhibition assay, 1-cycle (72 h treatment), SYBR DNA staining (library screen at 2 μg/mL and dose-response); type: cell-based, Plasmodium falciparum; conditions: for activity at 2 µg/mL: Plasmodium falciparum
[2] = tested on: T. gondii RH strain (RH-Tub-eYFP) tachyzoites; test: microbe, parasite or virus in culture; type: cell-based, Toxoplasma gondii; conditions: 72 h; for percent parasite growth at 2 µg/mL: Toxoplasma gondii
[3] = tested on: P. falciparum 3D7 parasites; test: P. falciparum growth inhibition assay, 2-cycle (120 h treatment), delayed-death screen and dose-response; type: cell-based, Plasmodium falciparum; conditions: for activity at 2 µg/mL: Plasmodium falciparum
[4] = P. falciparum, 72 h, parasite screen 2 μg/mL, % growth, replicate 1
[5] = P. falciparum, 72 h, parasite screen 2 μg/mL, % growth, replicate 2
[6] = T. gondii, parasite screen 2 μg/mL, % growth, replicate 1
[7] = T. gondii, parasite screen 2 μg/mL, % growth, replicate 2
[8] = P. falciparum, 120 h, parasite screen 2 μg/mL, % growth, replicate 1
[9] = P. falciparum, 120 h, parasite screen 2 μg/mL, % growth, replicate 2
[10] = 3D7, P. falciparum, 72 h, screen at 2 μg/mL, replicate 1, read-out: Pf_72h_%Growth_Rep1
[11] = 3D7, P. falciparum, 72 h, screen at 2 μg/mL, replicate 2, read-out: Pf_72h_%Growth_Rep2
[12] = T. gondii, screen at 2 μg/mL, replicate 1, read-out: Tg_72h_%Growth_Rep1
[13] = T. gondii, screen at 2 μg/mL, replicate 2, read-out: Tg_72h_%Growth_Rep2
[14] = 3D7, P. falciparum, 120 h, screen at 2 μg/mL, replicate 1, read-out: Pf_120h_%Growth_Rep1
[15] = 3D7, P. falciparum, 120 h, screen at 2 μg/mL, replicate 2, read-out: Pf_120h_%Growth_Rep2
[16] = P. falciparum, 72 h, screen at 2 μg/mL, replicate 1
[17] = P. falciparum, 72 h, screen at 2 μg/mL, replicate 2
[18] = T. gondii, screen at 2 μg/mL, replicate 1
[19] = T. gondii, screen at 2 μg/mL, replicate 2
[20] = P. falciparum, 120 h, screen at 2 μg/mL, replicate 1
[21] = P. falciparum, 120 h, screen at 2 μg/mL, replicate 2
[22] = library screen at 2 μg/mL, % growth, replicate 1, read-out: Tg_72h_%Growth_Rep1
[23] = library screen at 2 μg/mL, % growth, replicate 2, read-out: Tg_72h_%Growth_Rep2
[24] = library screen at 2 μg/mL, 72 h, % growth, replicate 1
[25] = library screen at 2 μg/mL, 72 h, % growth, replicate 2
[26] = library screen at 2 μg/mL, % growth, replicate 1
[27] = library screen at 2 μg/mL, % growth, replicate 2
[28] = library screen at 2 μg/mL, 120 h, % growth, replicate 1
[29] = library screen at 2 μg/mL, 120 h, % growth, replicate 2

## CC[C@H]1CCC[C@H](O)[C@@H](C)C(=O)C2=C[C@@H]3[C@@H](C=C(C)[C@@H]4C[C@@H](O[C@@H]5O[C@@H](C)[C@H](OC)[C@@H](OC)[C@H]5OC)C[C@@H]34)[C@@H]2CC(=O)O1 [Spinosyn D 17-pseudoaglycone]
[1]; [4]
  Pf_72h_%Growth_Rep1: 18.47%
[1]; [5]
  Pf_72h_%Growth_Rep2: 12.37%
[2]; [6]
  Tg_72h_%Growth_Rep1: 111.08%
[2]; [7]
  Tg_72h_%Growth_Rep2: 100.61%
[3]; [8]
  Pf_120h_%Growth_Rep1: 8.86%
[3]; [9]
  Pf_120h_%Growth_Rep2: 19.25%

## COc1cc2c(c3oc4cccc(O)c4c(=O)c13)[C@@H]1C=CO[C@@H]1O2 [Sterigmatocystin]
[1]; [4]
  Pf_72h_%Growth_Rep1: 4.81%
[1]; [5]
  Pf_72h_%Growth_Rep2: 2.16%
[2]; [6]
  Tg_72h_%Growth_Rep1: 117.93%
[2]; [7]
  Tg_72h_%Growth_Rep2: 89.47%
[3]; [8]
  Pf_120h_%Growth_Rep1: 5.33%
[3]; [9]
  Pf_120h_%Growth_Rep2: 4.61%

## COC(=O)/C(=C1/OC(=O)C(c2ccccc2)=C1O)c1ccccc1 [Vulpinic acid]
[1]; [10]
  activity at 2 µg/mL: 79.7%
[1]; [11]
  activity at 2 µg/mL: 129%
[2]; [12]
  percent parasite growth at 2 µg/mL: 109%
[2]; [13]
  percent parasite growth at 2 µg/mL: 97.7%
[3]; [14]
  activity at 2 µg/mL: 84.9%
[3]; [15]
  activity at 2 µg/mL: 103%

## C[C@H]1NC(=O)[C@@H]2CCCN2C1=O [Cyclo(D-Ala-L-Pro)]
[1]; [16]
  Pf_72h_%Growth_Rep1: 84.19%
[1]; [17]
  Pf_72h_%Growth_Rep2: 89.96%
[2]; [18]
  Tg_72h_%Growth_Rep1: 121.18%
[2]; [19]
  Tg_72h_%Growth_Rep2: 102.00%
[3]; [20]
  Pf_120h_%Growth_Rep1: 102.13%
[3]; [21]
  Pf_120h_%Growth_Rep2: 92.71%

## CN[C@H](CC(C)C)C(=O)N[C@H]1C(=O)N[C@@H](CC(N)=O)C(=O)N[C@H]2C(=O)N[C@H]3C(=O)N[C@H](C(=O)N[C@H](C(=O)O)c4cc(O)cc(O)c4-c4cc3ccc4O)[C@H](O)c3ccc(c(Cl)c3)Oc3cc2cc(c3O[C@@H]2O[C@H](CO)[C@@H](O)[C@H](O)[C@H]2O[C@H]2C[C@](C)(N)[C@H](O)[C@H](C)O2)Oc2ccc(cc2Cl)[C@H]1O [Vancomycin hydrochloride]
[1]; 3D7, 72 h, read-out: Pf_72h_%Growth_Rep1
  activity at 2 µg/mL: 88%
[1]; 3D7, 72 h, read-out: Pf_72h_%Growth_Rep2
  activity at 2 µg/mL: 120%
[2]; read-out: Tg_72h_%Growth_Rep1
  percent parasite growth at 2 µg/mL: 108%
[2]; read-out: Tg_72h_%Growth_Rep2
  percent parasite growth at 2 µg/mL: 80.9%
[3]; 3D7, 120 h, read-out: Pf_120h_%Growth_Rep1
  activity at 2 µg/mL: 110%
[3]; 3D7, 120 h, read-out: Pf_120h_%Growth_Rep2
  activity at 2 µg/mL: 98.5%

## COc1cc(-c2oc3c(OC)c(OC)cc(O)c3c(=O)c2OC)ccc1O [Ternatin]
[1]; [10]
  activity at 2 µg/mL: 64%
[1]; [11]
  activity at 2 µg/mL: 81%
[2]; [12]
  percent parasite growth at 2 µg/mL: 71.2%
[2]; [13]
  percent parasite growth at 2 µg/mL: 66.7%
[3]; [14]
  activity at 2 µg/mL: 137%
[3]; [15]
  activity at 2 µg/mL: 71.9%

## COC(=O)[C@]1(Cc2ccc3c(c2)C[C@H](O)C(C)(C)O3)OC(=O)C(O)=C1c1ccc(O)cc1 [Butyrolactone V]
[1]; [10]
  activity at 2 µg/mL: 83.9%
[1]; [11]
  activity at 2 µg/mL: 90.6%
[2]; [12]
  percent parasite growth at 2 µg/mL: 130%
[2]; [13]
  percent parasite growth at 2 µg/mL: 90%
[3]; [14]
  activity at 2 µg/mL: 100%
[3]; [15]
  activity at 2 µg/mL: 94.5%

## O=c1cccc2n1C[C@H]1C[C@@H]2CN2CCCC[C@H]12 [Anagyrine]
[1]; 3D7, 72 h, library screen at 2 μg/mL, 72 h, % growth, replicate 1, read-out: Pf_72h_%Growth_Rep1
  activity at 2 µg/mL: 88.8%
[1]; 3D7, 72 h, library screen at 2 μg/mL, 72 h, % growth, replicate 2, read-out: Pf_72h_%Growth_Rep2
  activity at 2 µg/mL: 124%
[2]; [22]
  percent parasite growth at 2 µg/mL: 136%
[2]; [23]
  percent parasite growth at 2 µg/mL: 82.1%
[3]; 3D7, 120 h, library screen at 2 μg/mL, 120 h, % growth, replicate 1, read-out: Pf_120h_%Growth_Rep1
  activity at 2 µg/mL: 106%
[3]; 3D7, 120 h, library screen at 2 μg/mL, 120 h, % growth, replicate 2, read-out: Pf_120h_%Growth_Rep2
  activity at 2 µg/mL: 103%

## CCC1OC2(CCC1C)CC1CC(CC=C(C)CC(C)C=CC=C3COC4C(O)C(C)=CC(C(=O)O1)C34O)O2 (stereo not drawn) [BIA-M1052]
[1]; P. falciparum 3D7, 72 h, parasite screen at 2 μg/mL, % growth, replicate 1
  Pf_72h_%Growth_Rep1: 59.66%
[1]; P. falciparum 3D7, 72 h, parasite screen at 2 μg/mL, % growth, replicate 2
  Pf_72h_%Growth_Rep2: 59.04%
[2]; T. gondii, parasite screen at 2 μg/mL, % growth, replicate 1
  Tg_72h_%Growth_Rep1: 117.80%
[2]; T. gondii, parasite screen at 2 μg/mL, % growth, replicate 2
  Tg_72h_%Growth_Rep2: 80.70%
[3]; P. falciparum 3D7, 120 h, parasite screen at 2 μg/mL, % growth, replicate 1
  Pf_120h_%Growth_Rep1: 32.48%
[3]; P. falciparum 3D7, 120 h, parasite screen at 2 μg/mL, % growth, replicate 2
  Pf_120h_%Growth_Rep2: 50.00%

## C=C1[C@@H](C)[C@H]2[C@H](Cc3ccccc3)NC(=O)[C@]23[C@H](OC(C)=O)/C=C/[C@@](C)(O)C(=O)[C@@H](C)C/C=C/[C@H]3[C@@H]1O [Cytochalasin D]
[1]; 3D7, 72 h, P. falciparum, 72 h, screen at 2 μg/mL, replicate 1, read-out: Pf_72h_%Growth_Rep1
  activity at 2 µg/mL: 6.33%
[1]; 3D7, 72 h, P. falciparum, 72 h, screen at 2 μg/mL, replicate 2, read-out: Pf_72h_%Growth_Rep2
  activity at 2 µg/mL: 2.44%
[2]; [12]
  percent parasite growth at 2 µg/mL: 2.17%
[2]; [13]
  percent parasite growth at 2 µg/mL: 2.65%
[3]; 3D7, 120 h, P. falciparum, 120 h, screen at 2 μg/mL, replicate 1, read-out: Pf_120h_%Growth_Rep1
  activity at 2 µg/mL: 3.12%
[3]; 3D7, 120 h, P. falciparum, 120 h, screen at 2 μg/mL, replicate 2, read-out: Pf_120h_%Growth_Rep2
  activity at 2 µg/mL: 4.41%

## CC[C@@H]1/C=C(\C)C[C@H](C)C[C@H](OC)[C@H]2O[C@@](O)(C(=O)C(=O)N3CCCC[C@H]3C(=O)O[C@H](/C(C)=C/[C@@H]3CC[C@@H](O)[C@H](OC)C3)[C@H](C)[C@@H](O)CC1=O)[C@H](C)C[C@@H]2OC [Ascomycin]
[1]; 3D7, library screen at 2 μg/mL, 72 h, % growth, replicate 1, read-out: Pf_72h_%Growth_Rep1
  activity at 2 µg/mL: 44.9%
[1]; 3D7, library screen at 2 μg/mL, 72 h, % growth, replicate 2, read-out: Pf_72h_%Growth_Rep2
  activity at 2 µg/mL: 50.6%
[2]; [22]
  percent parasite growth at 2 µg/mL: 79.9%
[2]; [23]
  percent parasite growth at 2 µg/mL: 79.4%
[3]; 3D7, library screen at 2 μg/mL, 120 h, % growth, replicate 1, read-out: Pf_120h_%Growth_Rep1
  activity at 2 µg/mL: 70.5%
[3]; 3D7, library screen at 2 μg/mL, 120 h, % growth, replicate 2, read-out: Pf_120h_%Growth_Rep2
  activity at 2 µg/mL: 40.4%

## COc1c2c(cc3c1c(=O)c1ccccc1n3C)OCO2 [Evoxanthine]
[1]; [24]
  Pf_72h_%Growth_Rep1: 81.42%
[1]; [25]
  Pf_72h_%Growth_Rep2: 82.46%
[2]; [26]
  Tg_72h_%Growth_Rep1: 136.78%
[2]; [27]
  Tg_72h_%Growth_Rep2: 86.81%
[3]; [28]
  Pf_120h_%Growth_Rep1: 87.52%
[3]; [29]
  Pf_120h_%Growth_Rep2: 89.49%

## Viridicatumtoxin
[1]; [16]
  Pf_72h_%Growth_Rep1: 2.34%
[1]; [17]
  Pf_72h_%Growth_Rep2: 2.82%
[2]; [18]
  Tg_72h_%Growth_Rep1: 122.40%
[2]; [19]
  Tg_72h_%Growth_Rep2: 65.71%
[3]; [20]
  Pf_120h_%Growth_Rep1: 6.51%
[3]; [21]
  Pf_120h_%Growth_Rep2: 13.13%

## CO[C@@H]1[C@@H](O)[C@@H](O)[C@@H](Oc2ccc3c(O)c(NC(=O)c4ccc(O)c(CC=C(C)C)c4)c(=O)oc3c2C)OC1(C)C [Descarbamylnovobiocin]
[1]; [24]
  Pf_72h_%Growth_Rep1: 85.51%
[1]; [25]
  Pf_72h_%Growth_Rep2: 80.09%
[2]; [26]
  Tg_72h_%Growth_Rep1: 154.63%
[2]; [27]
  Tg_72h_%Growth_Rep2: 96.44%
[3]; [28]
  Pf_120h_%Growth_Rep1: 85.93%
[3]; [29]
  Pf_120h_%Growth_Rep2: 82.51%
